The test addresses T1, 11β-HSD1 (Homo sapiens, UniProt P28845).
T1 construct: detecting cortisol generated from cortisterone by human liver microsomes; from tissue; host or cells: human liver microsomes
The experiment in a line: In vitro inhibition of 11β-HSD1, HTRF detection of cortisol generated by human liver microsomes. The class given is biochemical. Conditions: compound concentration 1 μM, 100% indicates no inhibition, zero or below zero indicates complete inhibition, cortisone 80 nM, 1 hour at 37° C., read-out: % CTL at 1 μM. How it is done: Briefly, compounds were incubated for 1 hour at 37° C. in Tris buffer (20 mM tris, 5 mM EDTA, pH 6.0) containing NADPH (200 μM) and cortisone (80 nM). Cortisol generated in the reaction is then detected with a competitive immunoassay, involving two HTRF conjugates: cortisol linked to XL665 and anti-cortisol antibody labeled with Europium cryptate. The incubation period for detection reaction was typically 2 hours. The amount of cortisol is determined by reading the time-resolved fluorescence of the wells (Ex 320/75 nm; Em 615/8.5 nm and 665/7.5 nm). The ratio of the two emission signals is then calculated (Em665*10000/Em615). […] Each assay also contained a calibration curve with cortisol to transform the fluorescent data into cortisol concentrations. Percent inhibition of each compound was determined relative to the carbenoxolone signal and IC50 curves were generated.
The % CTL values of some example compounds at a concentration of 1 μM are provided in the following Table 2 wherein 100% indicates no inhibition and a value of zero or below zero indicates complete inhibition. The measurement of % CTL is described hereinbefore.
On the technique in general: In TR-FRET formats the signal depends on donor and acceptor labels being close together.

T1 sequence (P28845 whole entry): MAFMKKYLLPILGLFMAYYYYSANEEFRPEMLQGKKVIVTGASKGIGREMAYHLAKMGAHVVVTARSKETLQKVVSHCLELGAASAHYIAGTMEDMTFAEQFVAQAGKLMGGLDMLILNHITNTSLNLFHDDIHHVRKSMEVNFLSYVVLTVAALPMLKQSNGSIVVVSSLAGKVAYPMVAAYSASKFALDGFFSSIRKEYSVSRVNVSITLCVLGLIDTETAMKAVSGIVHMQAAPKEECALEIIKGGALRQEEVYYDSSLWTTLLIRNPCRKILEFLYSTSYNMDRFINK

Consider `CC1(C)[C@H]2Cc3c(O)cccc3[C@]1(C)CCN2C(=O)N1CCC(C(N)=O)CC1` [Example 50], for which the remaining activity at 1 µM is -20%. Next, `CC(C)(C)C1COc2ccccc2N1C(=O)N1CC[C@@]2(C)c3cccc(O)c3C[C@@H]1C2(C)C` (some centres unmarked) [Example 51]: 94%; `CC1(C)[C@H]2Cc3c(O)cccc3[C@]1(C)CCN2C(=O)N1CCCC(c2nc3ccccc3[nH]2)C1` (some centres unmarked) [Example 52]: 27%; `CC1(C)[C@H]2Cc3c(O)cccc3[C@]1(C)CCN2C(=O)N1CCc2cc(O)ccc21` [Example 53]: 7%. `CC1(O)CCN(C(=O)N2CC[C@@]3(C)c4ccccc4C[C@@H]2C3(C)C)CC1` [Example 54]: the remaining activity at 1 µM was -25%. Next, `CC1(C)[C@H]2Cc3c(O)cccc3[C@]1(C)CCN2C(=O)N1CCCC2(CCNC2=O)C1` (some centres unmarked) [Example 55]: -31%. On to `CC1(C)[C@H]2Cc3c(O)cccc3[C@]1(C)CCN2C(=O)N1CCc2ccc(O)cc2C1` [Example 58], for which the remaining activity at 1 µM is -37%. Under `CC1(C)[C@H]2Cc3c(O)cccc3[C@]1(C)CCN2C(=O)N1CCCC(c2nnn[nH]2)C1` (some centres unmarked) [Example 59] stands 70%; under `CC1(C)[C@H]2Cc3ccccc3[C@]1(C)CCN2C(=O)N1CCCC2(CCCNC2=O)C1` (some centres unmarked) [Example 60], -19%. Consider `CC1(C)[C@H]2Cc3ccccc3[C@]1(C)CCN2C(=O)N1CCC(c2ccccc2)C1` (some centres unmarked) [Example 61], for which the remaining activity at 1 µM came to 7%.

With `CCOC(=O)[C@H]1CCCN(C(=O)N2CC[C@@]3(C)c4ccccc4C[C@@H]2C3(C)C)C1` [Example 62], the remaining activity at 1 µM turned out to be 13%. Under `CCOC(=O)C1CCCN(C(=O)N2CC[C@@]3(C)c4ccccc4C[C@@H]2C3(C)C)C1` (some centres unmarked) [Example 63] stands 47%. Next, `CC1(C)[C@H]2Cc3ccccc3[C@]1(C)CCN2C(=O)N1CCC[C@H](CO)C1` [Example 64]: -33%. Under `CC(C)(O)C1CCN(C(=O)N2CC[C@@]3(C)c4ccccc4C[C@@H]2C3(C)C)CC1` [Example 65] stands 2%; under `CC(C)(O)[C@@H]1CCCN(C(=O)N2CC[C@@]3(C)c4ccccc4C[C@@H]2C3(C)C)C1` [Example 66, [(R)-3-(1-Hydroxy-1-methyl-ethyl)-piperidin-1-yl]-[(2R,6S)-6,11,11-trimethyl-1,2,5,6-tetrahydro-4H-2,6-methano-benzo[d]azocin-3-yl]-methanone], -16%. Turning to `CC1(C)[C@H]2Cc3ccccc3[C@]1(C)CCN2C(=O)N1CCOC[C@H]1c1ccccc1` [Example 67], the remaining activity at 1 µM amounted to 71%. Next, `CC1(C)[C@H]2Cc3ccccc3[C@]1(C)CCN2C(=O)N1CCOCC1c1ccccc1` (some centres unmarked) [Example 68]: 87%; `CC(C)(O)[C@H]1CCCN(C(=O)N2CC[C@@]3(C)c4ccccc4C[C@@H]2C3(C)C)C1` [Example 69]: 6%. As to `CC1(C)[C@H]2Cc3ccccc3[C@]1(C)CCN2C(=O)N1CCC(O)CC1` [Example 70], the remaining activity at 1 µM was -15%. Under `CC1(C)[C@H]2Cc3ccccc3[C@]1(C)CCN2C(=O)N1CCC[C@@H](CO)C1` [Example 71, [(R)-3-Hydroxymethyl-piperidin-1-yl]-[(2R,6S)-6,11,11-trimethyl-1,2,5,6-tetrahydro-4H-2,6-methano-benzo[d]azocin-3-yl)-methanone] stands -18%; under `CC1(C)[C@H]2Cc3ccccc3[C@]1(C)CCN2C(=O)N1CCC(O)(C(F)(F)F)CC1` [Example 72], -11%; under `CC1(C)[C@H]2Cc3ccccc3[C@]1(C)CCN2C(=O)N1[C@@H]2CC[C@H]1C[C@](O)(C(F)(F)F)C2` [Example 73], -6%.

As to `CC1(C)[C@H]2Cc3ccccc3[C@]1(C)CCN2C(=O)N1[C@@H]2CC[C@H]1C[C@@H](O)C2` [Example 74], the remaining activity at 1 µM is -17%. Next, `COC(=O)CC1(c2ccccc2)CCN(C(=O)N2CC[C@@]3(C)c4ccccc4C[C@@H]2C3(C)C)C1` (some centres unmarked) [Example 75]: 26%; `CC1(C)[C@H]2Cc3ccccc3[C@]1(C)CCN2C(=O)N1[C@@H]2CC[C@H]1CC(=O)C2` [Example 76]: -10%. Next, `CC1(C)[C@H]2Cc3ccccc3[C@]1(C)CCN2C(=O)N1CCC(CCO)(c2ccccc2)C1` (some centres unmarked) [Example 77]: 30%. Under `CC(C)(O)CC1(c2ccccc2)CCN(C(=O)N2CC[C@@]3(C)c4ccccc4C[C@@H]2C3(C)C)C1` (some centres unmarked) [Example 78] stands 61%; under `CC1(C)[C@H]2Cc3ccccc3[C@]1(C)CCN2C(=O)N1[C@@H]2CC[C@H]1C[C@H](O)C2` [Example 79, (exo-3-Hydroxy-8-aza-bicyclo[3.2.1]oct-8-yl)-[(2R,6S)-6,11,11-trimethyl-1,2,5,6-tetrahydro-4H-2,6-methano-benzo[d]azocin-3-yl]-methanone], 13%; under `CC1(C)[C@H]2Cc3ccccc3[C@]1(C)CCN2C(=O)N1[C@@H]2CC[C@H]1C[C@@](O)(C(F)(F)F)C2` [Example 80], 70%.

For the origin of these results see patent publication US20110028445A1, “Urea derivatives of benzomorphanes and related scaffolds, medicaments containing such compounds and their use” (BOEHRINGER INGELHEIM INTERNATIONAL GMBH, priority 2008, published 2011).
